Test results reported in patent US20080274121A1, “Inhibition of Angiogenesis by Mithramycin” (priority 2007, published 2008).
“Also recorded” adds a separate entry of the source.

Key:
BON-1 cells = test: BON-1 carcinoid subcutaneous xenograft
Protocol: H727 and BON-1 cells were injected into the subcutis of nude mice (n=5). When tumors reached around 4 mm in diameter, the animals received different doses of MIT (0.10 [M-10], 0.20 [M-20], and 0.40 [M-40] mg/kg) via intraperitoneal injection twice a week. Tumors were measured once every week, and at each measurement, the mean±standard deviation (SD) tumor volume in the five mice in each group was calculated (A).
H727 and BON-1 cells were injected subcutaneously into nude mice. […] A. Tumors were measured once every week, and at each measurement, the mean±SD tumor volume in the five mice in each group was calculated. B. Mouse body weights were measured. The asterisks indicate the statistical significance (P<0.01) in a comparison between the treated and respective control groups.
(§2) Mithramycin-A (MIT, 1 mg/vial crystal powder; lot 055K4011) was purchased from Sigma Chemical Co. (St. Louis, Mo.) and diluted in sterile water. BVZ (25 mg/ml; NDC 50242-060-01) from Genentech, Inc. (South San Francisco, Calif.) was purchased. For animal experiments, MIT (0.1 to 0.4 mg/kg body weight) and BVZ (25 to 100 μg/mouse) were administered by intraperitoneal or subcutaneous injections twice a week or as otherwise stated.
(§3) Female athymic BALB/c nude mice were purchased from The Jackson Laboratory (Bar Harbor, Me.). The mice were housed in laminar flow cabinets under specific pathogen-free conditions and used when they were 8 weeks old.
H727 and BON-1 tumor cells were injected into the subcutis of mice as described in the Materials and Methods. […] Moreover, the residual tumors were harvested and angiogenesis was assessed by CD31 staining.
Synergistic antitumor effects of BVZ and MIT in human LGNET model. […] To test this hypothesis, we determined whether modulating Sp1 expression and/or activity impacts the efficacy of anti-angiogenic treatment of BVZ. […]
H727 and BON-1 cells were injected subcutaneously into nude mice and then administered treatment to them as described in FIG. 20. We monitored animal survival daily until termination of the experiment 160 days after tumor-cell injection.

[1] = system: Sp1 recruitment into the Sp1 promoter; test: ChIP assay, tumors formed by PANC-1 cells in nude mice; format: in vivo; details: tumors from treated mice (BVZ, MIT, B+M)
Protocol: (§1) FIG. 15. Effects of treatment with BVZ and MIT on Sp1 recruitment into the Sp1 promoter in human pancreatic cancer cells in vitro and in vivo. A, schematic structures of the minimal Sp1 promoters. The nucleotide positions and sequences of Sp1-binding sites and polymerase chain reaction forward and reverse primers flanking those sites for ChIP assay are shown. B, Sp1 and VEGF promoter reporter constructs were transfected into PANC-1 cells in triplicate and incubated for 12 hours. The cells were then incubated for another 24 hours in a medium alone or a medium containing 100 μg/ml BVZ or 0.1 μM MIT. Total protein lysates were harvested from the cell cultures for measurement of Sp1 and VEGF promoter activity using a luciferase assay kit. The relative Sp1 and VEGF promoter activities were assessed, and the activity in treated groups was expressed as the fold change of that in their respective control groups. C and D, chromatin was extracted from (C) PANC-1 cells that were incubated in vitro for 2 days in a medium alone or a medium containing 100 μg/ml BVZ or 0.1 μM MIT and (D) tumors formed by PANC-1 cells in nude mice that received treatment as described in FIG. 2A. […]

[2] = system: Sp1 recruitment into the Sp1 promoter; test: ChIP assay, PANC-1 cells in vitro; format: cell-based, human; details: 100 μg/ml BVZ or 0.1 μM MIT, 2 days
Protocol: as §1

H727 cells [3] = test: Viable cell count in vitro, H727; format: cell-based, human; details: 0 to 100 μg/ml BVZ, 5 days
Protocol: FIG. 18. Effects of treatment with BVZ and MIT on the growth of and gene expression in human carcinoid cells in vitro. A. H727 and BON-1 cells were incubated for 5 days in a medium alone or a medium containing 25 to 100 μg/ml BVZ. The viable cells were counted. B. H727 cells were incubated for 5 days in a medium alone or a medium containing 100 μg/ml BVZ. Total protein lysates were harvested from the cell cultures, and the level of Sp1 and VEGF protein expression was determined using Western blot analysis. Equal protein-sample loading was monitored by probing the same membrane filter with an anti-GAPDH. C. H727 and BON-1 cells were treated with MIT at concentrations ranging from 0.1 to 2.5 μM for 24 hours. Cytotoxicity was assessed using the MTT assay.
Effects of treatment with BVZ and MIT on the growth of and gene expression in human LGNET cells. To further determine whether treatment with BVZ directly impacts gene expression in LGNET cells, we incubated H727 and BON-1 cells in a medium alone or a medium containing 0 to 100 μg/ml BVZ for 5 days.

BxPC3 cells = test: BxPC3 subcutaneous xenograft, tumor volume and body weight; format: in vivo, nude mice
From the text: FIG. 10. Dose-dependent antitumor effects of BVZ and MIT in xenograft models of human pancreatic cancer. […] C and D, the control mice and mice that received (C) BVZ and (D) MIT were weighed at the time of experiment termination, and the weights were expressed as the mean±SD.
FIG. 11. Synergistic antitumor effects of treatment with BVZ and MIT in xenograft models of human pancreatic cancer. […] C, representative tumor sizes in each group of BxPC3 model mice.
To determine whether this takes place, we treated pancreatic cancer in nude mice with BVZ, MIT, or a combination of the two (B+M). Specifically, we first performed dose-response experiments. We injected BxPC3 cells subcutaneously into nude mice.
Next, we performed experiments using both BxPC3 and PANC-1 tumor cell models in which we administered PBS, BVZ (25 μg), MIT (0.10 mg/kg), or B+M to a group of nude mice.

Sp1 promoter = Sp1 promoter luciferase reporter in PANC-1 cells; format: cell-based, human; details: 100 μg/ml BVZ or 0.1 μM MIT
Protocol: as §1
Sp1 promoter constructs and analysis of Sp1 promoter activity. […] The reporter luciferase activity was measured 48 hours later using a luciferase assay kit (Promega, Madison, Wis.). […]

[4] = H727 carcinoid subcutaneous xenograft; details: BVZ; abstract does not name the model
Protocol: (§4) H727 carcinoid tumor volume during treatment course in nude mouse xenograft model for various doses and administration routes of mithramycin.
(§5) H727 and BON-1 cells were injected into the subcutis of nude mice (n=5). When tumors reached around 4 mm in diameter, the animals received different doses of MIT (0.10 [M-10], 0.20 [M-20], and 0.40 [M-40] mg/kg) via intraperitoneal injection twice a week. Tumors were measured once every week, and at each measurement, the mean±standard deviation (SD) tumor volume in the five mice in each group was calculated (A). […] This was one representative experiment of two with similar results.
(§6) H727 and BON-1 cells were injected subcutaneously into nude mice. […] A. Tumors were measured once every week, and at each measurement, the mean±SD tumor volume in the five mice in each group was calculated. B. Mouse body weights were measured. The asterisks indicate the statistical significance (P<0.01) in a comparison between the treated and respective control groups. This was one representative experiment of two with similar results.
(§7) H727 carcinoid cells were injected into the subcutis of groups of mice (n=5). When tumors reached 4 mm in diameter, animals received injections of PBS (controls), MIT (0.10, 0.20, or 0.40 mg/kg (s.c. or i.p.) twice a week. Tumors were measured once every week, and at each measurement, the mean±SD tumor volume in the five mice in each group was calculated.
as §2, §3
(§8) H727 and BON-1 tumor cells were injected into the subcutis of mice as described in the Materials and Methods. MIT treatment started when tumor sizes reached around 3-4 mm in diameters. […] Moreover, the residual tumors were harvested and angiogenesis was assessed by CD31 staining.
(§9) Specifically, we injected H727 and BON-1 cells subcutaneously into nude mice. […] We also administered PBS injections to animals as controls.
(§10) H727 and BON-1 cells were injected subcutaneously into nude mice and then administered treatment to them as described in FIG. 20.

H727 cells [5] = test: H727 carcinoid subcutaneous xenograft
Protocol: as §4, §5, §6, §7, §2, §3, §8, §9, §10

[6] = BVZ 25 μg, MIT 0.10 mg/kg, alone or combined, i.p. twice a week

bevacizumab [BVZ]
antitumor activity at low dose (BON-1 cells; [6]): marginal antitumor activity | body weight (BON-1 cells; BVZ alone): no discernable effects on body weight | animal survival (BON-1 cells; compared with PBS, 160 days): slightly increased survival rate | Sp1 recruitment to its own promoter [1]: significantly increase Sp1 recruitment to its own promoter | Sp1 recruitment to its own promoter [2]: did not affect Sp1 recruitment | cell growth in vitro (H727 cells [3]): did not affect the growth | antitumor activity at low dose (BxPC3 cells; BVZ 25 μg, MIT 0.10 mg/kg, or B+M): slight antitumor effects; also recorded: marginal antitumor activity | antitumor activity, dose-response (BxPC3 cells; BVZ 25, 50, 100 μg, MIT 0.1, 0.2, 0.4 mg/kg, i.p. twice a week): suppressed human pancreatic cancer growth | body weight (BxPC3 cells; BVZ alone, 25-100 μg): no discernable effect on body weight | Sp1 promoter activity (Sp1 promoter): did not suppress Sp1 promoter activity | human neuroendocrine tumor growth [4]: suppressed human neuroendocrine tumor growth in nude mice in a dose-dependent manner | antitumor activity at low dose (H727 cells [5]; [6]): marginal antitumor activity | body weight (H727 cells [5]; BVZ alone): no discernable effects on body weight | animal survival (H727 cells [5]; compared with PBS, 160 days): slightly increased survival rate
